pIC50: −log10 of the molar value.
Assay: Anticancer human tumor 997537-175-T-J1-PDC patient-derived colon adenocarcinoma cell line growth inhibition [POLQ]
Conditions: 997537-175-T-J1-PDC complex spheroid viability, combination with POLQ inhibitors; for pIC50: curve of first compound; for viability, T/C: stronger effect = lower value
In short: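 Growth inhibition in 3D: complex spheroids (tumor PDC, HUVEC, MSC) treated with POLQ inhibitor combinations; where Cmax unknown, highest tested concentration 10 microM, except SN-38 at 1 microM.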

[1] = second compound 0.0316 µM, first compound 0.0316 µM
[2] = second compound 0.0316 µM, first compound 0.1 µM
[3] = second compound 0.0316 µM, first compound 0.316 µM
[4] = second compound 0.0316 µM, first compound 1 µM
[5] = second compound 0.0316 µM, first compound 3.16 µM
[6] = second compound 0.0316 µM, first compound 10 µM
[7] = second compound 0.1 µM, first compound 0.0316 µM
[8] = second compound 0.1 µM, first compound 0.1 µM
[9] = second compound 0.1 µM, first compound 0.316 µM
[10] = second compound 0.1 µM, first compound 1 µM
[11] = second compound 0.1 µM, first compound 3.16 µM
[12] = second compound 0.1 µM, first compound 10 µM
[13] = second compound 0.316 µM, first compound 0.0316 µM
[14] = second compound 0.316 µM, first compound 0.1 µM
[15] = second compound 0.316 µM, first compound 0.316 µM
[16] = second compound 0.316 µM, first compound 1 µM
[17] = second compound 0.316 µM, first compound 3.16 µM
[18] = second compound 0.316 µM, first compound 10 µM
[19] = second compound 1 µM, first compound 0.0316 µM
[20] = second compound 1 µM, first compound 0.1 µM
[21] = second compound 1 µM, first compound 0.316 µM
[22] = second compound 1 µM, first compound 1 µM
[23] = second compound 1 µM, first compound 3.16 µM
[24] = second compound 1 µM, first compound 10 µM
[25] = second compound 3.16 µM, first compound 0.0316 µM
[26] = second compound 3.16 µM, first compound 0.1 µM
[27] = second compound 3.16 µM, first compound 0.316 µM
[28] = second compound 3.16 µM, first compound 1 µM
[29] = second compound 3.16 µM, first compound 3.16 µM
[30] = second compound 3.16 µM, first compound 10 µM
[31] = second compound 10 µM, first compound 0.0316 µM
[32] = second compound 10 µM, first compound 0.1 µM
[33] = second compound 10 µM, first compound 0.316 µM
[34] = second compound 10 µM, first compound 1 µM
[35] = second compound 10 µM, first compound 3.16 µM
[36] = second compound 10 µM, first compound 10 µM
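Also: luminescence signal used as a surrogate for viable cells; spheroids exposed to drugs for seven days before readout.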

CNCc1ccc(-c2[nH]c3cc(F)cc4c3c2CCNC4=O)cc1 + Cc1cccc(N(C)C(=O)C2C(O)CCN2c2nc(C)cc(C(F)(F)F)c2C#N)c1
pIC50 (second compound 0.0316 µM): < 5.00 | pIC50 (second compound 0.1 µM): < 5.00 | pIC50 (second compound 0.316 µM): < 5.00 | pIC50 (second compound 1 µM): < 5.00 | pIC50 (second compound 3.16 µM): < 5.00 | pIC50 (second compound 10 µM): < 5.00 | viability, T/C [1]: 94.7% | viability, T/C [2]: 114% | viability, T/C [3]: 81.6% | viability, T/C [4]: 87.9% | viability, T/C [5]: 109% | viability, T/C [6]: 85.3% | viability, T/C [7]: 119% | viability, T/C [8]: 94.2% | viability, T/C [9]: 103% | viability, T/C [10]: 104% | viability, T/C [11]: 101% | viability, T/C [12]: 121% | viability, T/C [13]: 105% | viability, T/C [14]: 103% | viability, T/C [15]: 99.5% | viability, T/C [16]: 102% | viability, T/C [17]: 119% | viability, T/C [18]: 89.5% | viability, T/C [19]: 92.4% | viability, T/C [20]: 113% | viability, T/C [21]: 99% | viability, T/C [22]: 86.3% | viability, T/C [23]: 99.8% | viability, T/C [24]: 90.2% | viability, T/C [25]: 116% | viability, T/C [26]: 84.8% | viability, T/C [27]: 99.8% | viability, T/C [28]: 117% | viability, T/C [29]: 82.1% | viability, T/C [30]: 96.9% | viability, T/C [31]: 103% | viability, T/C [32]: 112% | viability, T/C [33]: 94.2% | viability, T/C [34]: 101% | viability, T/C [35]: 95.5% | viability, T/C [36]: 89.4%

CCCS(=O)(=O)Nc1ccc(F)c(C(=O)c2c[nH]c3ncc(-c4ccc(Cl)cc4)cc23)c1F + COC1C(OC(N)=O)C(O)C(Oc2ccc3c(O)c(NC(=O)c4ccc(O)c(CC=C(C)C)c4)c(=O)oc3c2C)OC1(C)C
pIC50 (second compound 0.0316 µM): 5.24 | pIC50 (second compound 0.1 µM): 5.12 | pIC50 (second compound 0.316 µM): 5.18 | pIC50 (second compound 1 µM): 5.28 | pIC50 (second compound 3.16 µM): 5.21 | pIC50 (second compound 10 µM): 5.32 | viability, T/C [1]: 93.4% | viability, T/C [2]: 96% | viability, T/C [3]: 87.1% | viability, T/C [4]: 84.8% | viability, T/C [5]: 71.5% | viability, T/C [6]: 30.6% | viability, T/C [7]: 102% | viability, T/C [8]: 92.6% | viability, T/C [9]: 84.9% | viability, T/C [10]: 78% | viability, T/C [11]: 77% | viability, T/C [12]: 41.2% | viability, T/C [13]: 82.8% | viability, T/C [14]: 91.6% | viability, T/C [15]: 77.8% | viability, T/C [16]: 84.1% | viability, T/C [17]: 75% | viability, T/C [18]: 36.2% | viability, T/C [19]: 86.4% | viability, T/C [20]: 79.5% | viability, T/C [21]: 73.2% | viability, T/C [22]: 75.2% | viability, T/C [23]: 72.7% | viability, T/C [24]: 21.7% | viability, T/C [25]: 95.6% | viability, T/C [26]: 78.9% | viability, T/C [27]: 77.3% | viability, T/C [28]: 73.5% | viability, T/C [29]: 78% | viability, T/C [30]: 30.1% | viability, T/C [31]: 81.4% | viability, T/C [32]: 84% | viability, T/C [33]: 90.8% | viability, T/C [34]: 85.6% | viability, T/C [35]: 63.9% | viability, T/C [36]: 25.3%

CC1COCCN1c1cc(C2(O)CC3CCC(C2)O3)c2cnn(-c3ccn[nH]3)c2n1 (stereo unspecified) + Cc1cccc(N(C)C(=O)C2C(O)CCN2c2nc(C)cc(C(F)(F)F)c2C#N)c1
pIC50 (second compound 0.0316 µM): < 5.00 | pIC50 (second compound 0.1 µM): 5.50 | pIC50 (second compound 0.316 µM): 6.03 | pIC50 (second compound 1 µM): < 5.00 | pIC50 (second compound 3.16 µM): < 5.00 | pIC50 (second compound 10 µM): 5.40 | viability, T/C [1]: 79.8% | viability, T/C [2]: 96% | viability, T/C [3]: 60% | viability, T/C [4]: 52.8% | viability, T/C [5]: 58.3% | viability, T/C [6]: 39% | viability, T/C [7]: 94.8% | viability, T/C [8]: 94.2% | viability, T/C [9]: 48.6% | viability, T/C [10]: 42.4% | viability, T/C [11]: 66.4% | viability, T/C [12]: 53.9% | viability, T/C [13]: 76.5% | viability, T/C [14]: 66.8% | viability, T/C [15]: 54.8% | viability, T/C [16]: 45.9% | viability, T/C [17]: 53.8% | viability, T/C [18]: 47.6% | viability, T/C [19]: 86.8% | viability, T/C [20]: 81.9% | viability, T/C [21]: 43.2% | viability, T/C [22]: 57.3% | viability, T/C [23]: 81.9% | viability, T/C [24]: 64.7% | viability, T/C [25]: 84.3% | viability, T/C [26]: 59.9% | viability, T/C [27]: 62.8% | viability, T/C [28]: 54.1% | viability, T/C [29]: 54.5% | viability, T/C [30]: 75.8% | viability, T/C [31]: 92.3% | viability, T/C [32]: 69% | viability, T/C [33]: 61.4% | viability, T/C [34]: 47.4% | viability, T/C [35]: 58.1% | viability, T/C [36]: 44.8%
